According to patent publication US9828396B2, “Alkyne compounds for treatment of complement mediated disorders” (Achillion Pharmaceuticals, Inc., priority 2014, dated 2017):

Biological target: Human factor D (Homo sapiens (Human), UniProt P00746)
Assay: Human Factor D Assay
Format: biochemical
Conditions: Human factor D 80 nM, substrate Z-L-Lys-SBzl, assay of Example 12
Outline: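 Serum-purified human factor D (80 nM final) was preincubated 5 min at room temperature with compound in 50 mM Tris, 1 M NaCl, pH 7.5. Z-L-Lys-SBzl and DTNB (100 μM each) were added and OD405 followed kinetically over 30 min; IC50 from non-linear regression of percent inhibition.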

Chain of Human factor D (P00746 26-253): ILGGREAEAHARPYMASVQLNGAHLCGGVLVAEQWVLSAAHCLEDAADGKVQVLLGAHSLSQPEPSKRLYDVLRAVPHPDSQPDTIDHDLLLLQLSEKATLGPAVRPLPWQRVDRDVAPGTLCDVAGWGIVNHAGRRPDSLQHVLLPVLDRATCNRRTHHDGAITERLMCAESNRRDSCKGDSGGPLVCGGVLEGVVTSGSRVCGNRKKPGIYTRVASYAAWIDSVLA

Row | SMILES | IC50 [nM]
1 | NC(=O)c1nn(CC(=O)N2C[C@H](F)C[C@H]2C(=O)Nc2cccc(-c3cccc(Cl)c3)c2F)c2ccc(C#Cc3ncccn3)cc12 [Compound 30, 1-(2-((2S,4R)-2-(3′-chloro-2-fluorobiphenyl-3-ylcarbamoyl)-4-fluoropyrrolidin-1-yl)-2-oxoethyl)-5-(pyrimidin-2-ylethynyl)-1H-indazole-3-carboxamide] | < 1000
2 | NC(=O)c1nn(CC(=O)N2[C@@H]3C[C@@H]3C[C@H]2C(=O)Nc2cccc(C3CC3)n2)c2ccc(C#Cc3ncccn3)cc12 [Compound 54, 1-(2-((1R,3S,5R)-3-(6-cyclopropylpyridin-2-ylcarbamoyl)-2-azabicyclo[3.1.0]hexan-2-yl)-2-oxoethyl)-5-(pyrimidin-2-ylethynyl)-1H-indazole-3-carboxamide] | < 1000
3 | NC(=O)c1nn(CC(=O)N2C[C@H](F)C[C@H]2C(=O)Nc2cccc(Br)n2)c2ccc(C#Cc3ncc(F)cn3)cc12 [Compound 46, 1-(2-((2S,4R)-2-(6-bromopyridin-2-ylcarbamoyl)-4-fluoropyrrolidin-1-yl)-2-oxoethyl)-5-((5-fluoropyrimidin-2-yl)ethynyl)-1H-indazole-3-carboxamide] | < 1000
4 | NC(=O)c1nn(CC(=O)N2CCS[C@H]2C(=O)Nc2cccc(-c3ccccc3Cl)c2F)c2ccc(C#Cc3ncccn3)cc12 [Compound 66, (S)-3-(2-(3-carbamoyl-5-(pyrimidin-2-ylethynyl)-1H-indazol-1-yl)acetyl)-N-(2′-chloro-2-fluorobiphenyl-3-yl)thiazolidine-2-carboxamide] | < 1000
5 | CC(=O)c1cn(CC(=O)N2C[C@H](F)C[C@H]2C(=O)NCc2cccc(Cl)c2F)c2ccc(C#Cc3ncccn3)cc12 [Compound 9, (2S,4R)-1-(2-(3-acetyl-5-(pyrimidin-2-ylethynyl)-1H-indol-1-yl)acetyl)-N-(3-chloro-2-fluorobenzyl)-4-fluoropyrrolidine-2-carboxamide] | < 1000
6 | CC(=O)c1cn(CC(=O)N2C[C@H](F)C[C@H]2C(=O)NCc2cccc(Cl)c2F)c2ccc(C#Cc3ccccc3)cc12 [Compound 14, (2S,4R)-1-(2-(3-acetyl-5-(phenylethynyl)-1H-indol-1-yl)acetyl)-N-(3-chloro-2-fluorobenzyl)-4-fluoropyrrolidine-2-carboxamide] | < 1000
7 | CC(=O)c1cn(CC(=O)N2C[C@H](F)C[C@H]2C(=O)NCc2cccc(Cl)c2F)c2cc(C#Cc3c[nH]c(=O)nc3N)ccc12 [Compound 5, (2S,4R)-1-(2-(3-acetyl-6-((4-amino-2-oxo-1,2-dihydropyrimidin-5-yl)ethynyl)-1H-indol-1-yl)acetyl)-N-(3-chloro-2-fluorobenzyl)-4-fluoropyrrolidine-2-carboxamide] | < 1000
8 | NC(=O)c1nn(CC(=O)N2C[C@H](F)C[C@H]2C(=O)Nc2cncc(-c3cc(F)c(F)cc3Cl)n2)c2ccc(C#Cc3ncc(F)cn3)cc12 [Compound 87, 1-(2-((2S,4R)-2-(6-(2-chloro-4,5-difluorophenyl)pyrazin-2-ylcarbamoyl)-4-fluoropyrrolidin-1-yl)-2-oxoethyl)-5-((5-fluoropyrimidin-2-yl)ethynyl)-1H-indazole-3-carboxamide] | < 1000
9 | CC(C)=C(F)CNC(=O)[C@@H]1C[C@@H](F)CN1C(=O)Cn1nc(C(N)=O)c2cc(C#Cc3ncccn3)ccc21 [Compound 45, 1-(2-((2S,4R)-4-fluoro-2-(2-fluoro-3-methylbut-2-enylcarbamoyl)pyrrolidin-1-yl)-2-oxoethyl)-5-(pyrimidin-2-ylethynyl)-1H-indazole-3-carboxamide] | < 1000
10 | CC(=O)c1cn(CC(=O)N2C[C@H](F)C[C@H]2C(=O)NCc2cccc(Cl)c2F)c2ccc(C#Cc3ccccn3)cc12 [Compound 19, (2S,4R)-1-(2-(3-acetyl-5-(pyridin-2-ylethynyl)-1H-indol-1-yl)acetyl)-N-(3-chloro-2-fluorobenzyl)-4-fluoropyrrolidine-2-carboxamide] | < 1000
